Key:
[1] = tested on: NCIH1299-inducible p53 Y220C cells; assay: Cell Proliferation Assay (CellTiter-Glo), NCIH1299-inducible p53 Y220C; format: cell-based; settings: Homo sapiens, NCI-H1299, 120 h, 5 days, read-out: CTG H1299 P53 Y220C IC50
Method in brief: (§1)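 Seeded at 250–500 cells/well, then compound-treated for 5 days; the NCIH1299 lines carry Tet-One inducible p53 Y220C or R273H transduced lentivirally. Viability by CellTiter-Glo luminescence after 10 min at room temperature; IC50 calculated.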

[2] = target: T1, p53 Y220C mutant protein (amino acid residues 94-293) (Homo sapiens, UniProt P04637, Y220C); assay: Surface Plasmon Resonance (SPR) assay, p53 Y220C Kd_kinetic; settings: multi-cycle kinetics, 16 or 20 °C, pH 7.5, 1:1 binding model
T1 construct: p53 Y220C mutant protein (amino acid residues 94-293)
T1 sequence (P04637 94-293, stated change not applied): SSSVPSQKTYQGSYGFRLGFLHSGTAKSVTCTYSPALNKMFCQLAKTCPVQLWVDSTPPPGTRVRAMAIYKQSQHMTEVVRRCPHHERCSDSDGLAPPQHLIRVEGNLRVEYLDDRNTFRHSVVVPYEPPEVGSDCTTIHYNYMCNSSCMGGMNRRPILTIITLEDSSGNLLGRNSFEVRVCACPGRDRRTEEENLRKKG
Method in brief: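 Kd from multi-cycle SPR kinetics fitted to a 1:1 model, using 2-fold, 7-point compound series over p53 Y220C (residues 94-293). Flow 30 μL/min, 60 s association, 120 s dissociation, at 16 or 20 °C in 50 mM Tris pH 7.5, 100 mM NaCl, 1 mM DTT, 0.01% Brij35, 0.05% Tween-20, 1% DMSO.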

NUGC3 cells (p53 Y220C) = assay: Cell Proliferation Assay (CellTiter-Glo), NUGC3 p53 Y220C; format: cell-based; settings: Homo sapiens, NUGC-3, 120 h, 5 days, read-out: CTG NUGC3 P53 Y220C IC50
Method in brief: as §1

p53 Y220C = p53 Y220C (Homo sapiens, UniProt P04637, Y220C); assay: Luciferase Reporter Assay, p53 Y220C (NCIH1299 cells with inducible p53 Y220C and p53 response element-luciferase); format: cell-based; settings: 6 hour compound treatment, read-out: Luc P53 Y220C AC50
Method in brief: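 NCI-H1299 cells stably carrying a p53 response element-luciferase reporter and Tet-inducible p53 Y220C were induced with 0.5 ug/mL doxycycline for 24 h, then treated with compound for 6 h. Luminescence was read after One-Glo addition. AC50 was derived relative to 10 uM tool compound as positive control.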

Kd [2] [µM]	AC50 (p53 Y220C) [µM]	SMILES	IC50 [1] [µM]	IC50 (NUGC3 cells (p53 Y220C)) [µM]
< 0.01	< 0.75	CN1CC[C@@H](Nc2cccn3c(SC(F)(F)F)c(-c4noc(CNC(=O)c5ccc(S(C)(=O)=O)cc5)n4)cc23)[C@@H](F)C1 [Example 42, N-{[3-(8-{[(3S,4R)-3-fluoro-1-methylpiperidin-4-yl]amino}-3-[(trifluoromethyl)sulfanyl]indolizin-2-yl)-1,2,4-oxadiazol-5-yl]methyl}-4-methanesulfonylbenzamide]	< 0.75	< 0.75
0.01 to 0.1	0.75 to 1.5	CN1CC[C@@H](Nc2cccn3c(SC(F)(F)F)c(-c4noc(CNC(=O)COc5ccc(C#N)cc5)n4)cc23)[C@@H](F)C1 [Example 43, 2-(4-cyanophenoxy)-N-{[3-(8-{[(3S,4R)-3-fluoro-1-methylpiperidin-4-yl]amino}-3-[(trifluoromethyl)sulfanyl]indolizin-2-yl)-1,2,4-oxadiazol-5-yl]methyl}acetamide]	0.75 to 1.5	0.75 to 1.5
< 0.01	< 0.75	CN1CC[C@@H](Nc2cccn3c(SC(F)(F)F)c(-c4noc(CNC(=O)C#CC5(NC(=O)OC(C)(C)C)CC5)n4)cc23)[C@@H](F)C1 [Example 44, tert-butyl N-{1-[2-({[3-(8-{[(3S,4R)-3-fluoro-1-methylpiperidin-4-yl]amino}-3-[(trifluoromethyl)sulfanyl]indolizin-2-yl)-1,2,4-oxadiazol-5-yl]methyl}carbamoyl)eth-1-yn-1-yl]cyclopropyl}carbamate]	< 0.75	0.75 to 1.5
0.01 to 0.1	≥ 3	CN1CC[C@@H](Nc2cccn3c(SC(F)(F)F)c(-c4noc(CNC(=O)C56CC(NC(=O)OC(C)(C)C)(C5)C6)n4)cc23)[C@@H](F)C1 [Example 45, tert-butyl N-[3-({[3-(8-{[(3S,4R)-3-fluoro-1-methylpiperidin-4-yl]amino}-3-[(trifluoromethyl)sulfanyl]indolizin-2-yl)-1,2,4-oxadiazol-5-yl]methyl}carbamoyl)bicyclo[1.1.1]pentan-1-yl]carbamate]	≥ 3	1.5 to 3
0.1 to 1	≥ 3	CN1CC[C@@H](Nc2cccn3c(SC(F)(F)F)c(-c4noc(CNC(=O)C5(c6ccc(F)cc6)CC5)n4)cc23)[C@@H](F)C1 [Example 46, N-{[3-(8-{[(3S,4R)-3-fluoro-1-methylpiperidin-4-yl]amino}-3-[(trifluoromethyl)sulfanyl]indolizin-2-yl)-1,2,4-oxadiazol-5-yl]methyl}-1-(4-fluorophenyl)cyclopropane-1-carboxamide]	≥ 3	≥ 3
0.01 to 0.1	≥ 3	CN1CC[C@@H](Nc2cccn3c(SC(F)(F)F)c(-c4noc(CNC(=O)C5(C(F)(F)F)CC5)n4)cc23)[C@@H](F)C1 [Example 47, N-{[3-(8-{[(3S,4R)-3-fluoro-1-methylpiperidin-4-yl]amino}-3-[(trifluoromethyl)sulfanyl]indolizin-2-yl)-1,2,4-oxadiazol-5-yl]methyl}-1-(trifluoromethyl)cyclopropane-1-carboxamide]	≥ 3	≥ 3
0.01 to 0.1	1.5 to 3	CN1CC[C@@H](Nc2cccn3c(SC(F)(F)F)c(-c4noc(CNC(=O)C(C)(C)O)n4)cc23)[C@@H](F)C1 [Example 49, N-{[3-(8-{[(3S,4R)-3-fluoro-1-methylpiperidin-4-yl]amino}-3-[(trifluoromethyl)sulfanyl]indolizin-2-yl)-1,2,4-oxadiazol-5-yl]methyl}-2-hydroxy-2-methylpropanamide]	1.5 to 3	≥ 3
0.01 to 0.1	≥ 3	C[C@H](NC(=O)C1CC1)c1nc(-c2cc3c(N[C@@H]4CCN(C)C[C@@H]4F)cccn3c2SC(F)(F)F)no1 [Example 52, N-[(1S)-1-[3-(8-{[(3S,4R)-3-fluoro-1-methylpiperidin-4-yl]amino}-3-[(trifluoromethyl)sulfanyl]indolizin-2-yl)-1,2,4-oxadiazol-5-yl]ethyl]cyclopropanecarboxamide]	≥ 3	≥ 3
< 0.01	< 0.75	CNC(=O)c1ccc(NCc2nc(-c3cc4c(N[C@@H]5CCN(C)C[C@@H]5F)cccn4c3SC(F)(F)F)no2)nc1 [Example 54, 6-({[3-(8-{[(3S,4R)-3-fluoro-1-methylpiperidin-4-yl]amino}-3-[(trifluoromethyl)sulfanyl]indolizin-2-yl)-1,2,4-oxadiazol-5-yl]methyl}amino)-N-methylpyridine-3-carboxamide]	< 0.75	< 0.75
0.01 to 0.1	0.75 to 1.5	CN1CC[C@@H](Nc2cccn3c(SC(F)(F)F)c(-c4noc(CNC(=O)c5ccc(-c6ccn[nH]6)s5)n4)cc23)[C@@H](F)C1 [Example 56, N-{[3-(8-{[(3S,4R)-3-fluoro-1-methylpiperidin-4-yl]amino}-3-[(trifluoromethyl)sulfanyl]indolizin-2-yl)-1,2,4-oxadiazol-5-yl]methyl}-5-(2H-pyrazol-3-yl)thiophene-2-carboxamide]	< 0.75	< 0.75
< 0.01	< 0.75	CNC(=O)c1ccc(C(=O)NCc2nc(-c3cc4c(N[C@@H]5CCN(C)C[C@@H]5F)cccn4c3SC(F)(F)F)no2)cc1 [Example 57, N1—{[3-(8-{[(3S,4R)-3-fluoro-1-methylpiperidin-4-yl]amino}-3-[(trifluoromethyl)sulfanyl]indolizin-2-yl)-1,2,4-oxadiazol-5-yl]methyl}-N4-methylbenzene-1,4-dicarboxamide]	< 0.75	< 0.75
< 0.01	< 0.75	CNC(=O)c1cccc(C(=O)NCc2nc(-c3cc4c(N[C@@H]5CCN(C)C[C@@H]5F)cccn4c3SC(F)(F)F)no2)c1 [Example 58, N1—{[3-(8-{[(3S,4R)-3-fluoro-1-methylpiperidin-4-yl]amino}-3-[(trifluoromethyl)sulfanyl]indolizin-2-yl)-1,2,4-oxadiazol-5-yl]methyl}-N3-methylbenzene-1,3-dicarboxamide]	< 0.75	< 0.75
< 0.01	0.75 to 1.5	CC(=O)NCc1nc(-c2cc3c(N[C@@H]4CCN(C)C[C@@H]4F)cccn3c2SC(F)(F)F)no1 [Example 59, N-{[3-(8-{[(3S,4R)-3-fluoro-1-methylpiperidin-4-yl]amino}-3-[(trifluoromethyl)sulfanyl]indolizin-2-yl)-1,2,4-oxadiazol-5-yl]methyl}acetamide]	< 0.75	0.75 to 1.5
0.01 to 0.1	1.5 to 3	CC(C)C(=O)NCc1nc(-c2cc3c(N[C@@H]4CCN(C)C[C@@H]4F)cccn3c2SC(F)(F)F)no1 [Example 60, N-{[3-(8-{[(3S,4R)-3-fluoro-1-methylpiperidin-4-yl]amino}-3-[(trifluoromethyl)sulfanyl]indolizin-2-yl)-1,2,4-oxadiazol-5-yl]methyl}-2-methylpropanamide]	1.5 to 3	1.5 to 3
0.01 to 0.1	≥ 3	COC(C)(C)C(=O)NCc1nc(-c2cc3c(N[C@@H]4CCN(C)C[C@@H]4F)cccn3c2SC(F)(F)F)no1 [Example 61, N-{[3-(8-{[(3S,4R)-3-fluoro-1-methylpiperidin-4-yl]amino}-3-[(trifluoromethyl)sulfanyl]indolizin-2-yl)-1,2,4-oxadiazol-5-yl]methyl}-2-methoxy-2-methylpropanamide]	≥ 3	≥ 3
< 0.01	1.5 to 3	CN1CC[C@@H](Nc2cccn3c(SC(F)(F)F)c(-c4noc(CNC(=O)[C@H]5C[C@@H](O)C5)n4)cc23)[C@@H](F)C1 [Example 62, (1s,3s)-N-{[3-(8-{[(3S,4R)-3-fluoro-1-methylpiperidin-4-yl]amino}-3-[(trifluoromethyl)sulfanyl]indolizin-2-yl)-1,2,4-oxadiazol-5-yl]methyl}-3-hydroxycyclobutane-1-carboxamide]	0.75 to 1.5	1.5 to 3
< 0.01	1.5 to 3	C[C@@H](O)CC(=O)NCc1nc(-c2cc3c(N[C@@H]4CCN(C)C[C@@H]4F)cccn3c2SC(F)(F)F)no1 [Example 63, (3R)-N-{[3-(8-{[(3S,4R)-3-fluoro-1-methylpiperidin-4-yl]amino}-3-[(trifluoromethyl)sulfanyl]indolizin-2-yl)-1,2,4-oxadiazol-5-yl]methyl}-3-hydroxybutanamide]	≥ 3	1.5 to 3
0.01 to 0.1	≥ 3	C[C@H](O)CC(=O)NCc1nc(-c2cc3c(N[C@@H]4CCN(C)C[C@@H]4F)cccn3c2SC(F)(F)F)no1 [Example 64, (3S)—N-{[3-(8-{[(3S,4R)-3-fluoro-1-methylpiperidin-4-yl]amino}-3-[(trifluoromethyl)sulfanyl]indolizin-2-yl)-1,2,4-oxadiazol-5-yl]methyl}-3-hydroxybutanamide]	≥ 3	≥ 3

Source: patent US20260347353A1, “INDOLIZINE DERIVATIVES FOR TREATING CANCER” (Antares Therapeutics, Inc., priority 2022, published 2026)
